Assay results taken from patent US20210093558A1 (Bryn Pharma, LLC, priority 2018, published 2021).

Tested on: histamine induced nasal congestion

NCCc1c[nH]cn1 [Histamine, histamine]
induction of nasal congestion (5% histamine aerosol for 5 minutes): induced congestion in all animals to varying degrees | nasal congestion and flow restriction pressure (5 and 10 minutes post-histamine exposure, Group 1): progressive increase in nasal congestion and flow restriction pressure | histamine induced congestion without epinephrine (pilot study, 60, 80 and 100 minute time points): remains elevated at significant levels
